The supplement of paper PMC10307832

Experiments:
Experiment in all cases: relative viability (nuclei count vs DMSO), 5 days (fraction); higher = more cells survive
[1] = compound: C[C@]12O[C@H](C[C@]1(O)CO)n1c3ccccc3c3c4c(c5c6ccccc6n2c5c31)CNC4=O [Lestaurtinib] + C[C@]1(O)C[C@@H](c2nc(-c3ccc4ccc(-c5ccccc5)nc4c3)c3c(N)nccn32)C1 [Linsitinib] (partner 1 µM)
Procedure, shortened: (§1)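 A single step with final 0.05% Triton X-100, 1% formaldehyde and 1 ug/ml Hoechst fixed the cells and stained nuclei 5 days after treatment. Lung cancer cell lines in 1536-well plates had been treated by pin tool the day after seeding with one drug alone or a fixed anchor-drug dose plus five library-drug doses (not always all listed) in √10 steps, and nuclei were counted on 4× images. Relative viability is the ratio of nuclei in treated wells to nuclei in vehicle wells, taken as the median of duplicate plates.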

[2] = compound: C1/C(=C\C2=CC=CS2)/C(=O)/C(=C/C3=CC=CS3)/C1 + CC1(C)CCC(c2ccc(Cl)cc2)=C(CN2CCN(c3ccc(C(=O)NS(=O)(=O)c4ccc(N[C@H](CCN5CCOCC5)CSc5ccccc5)c(S(=O)(=O)C(F)(F)F)c4)cc3)CC2)C1 [Navitoclax] (partner 0.5 µM)
Procedure, shortened: as §1

TPCA-1 + OSI-027 = compound: C1=CC(=CC=C1C2=CC(=C(S2)NC(=O)N)C(=O)N)F [TPCA-1] + COc1cccc2cc(-c3nc([C@H]4CC[C@H](C(=O)O)CC4)n4ncnc(N)c34)[nH]c12 [OSI-027] (partner 0.5 µM)
Procedure, shortened: as §1

[3] = compound: C[C@]12O[C@H](C[C@]1(O)CO)n1c3ccccc3c3c4c(c5c6ccccc6n2c5c31)CNC4=O [Lestaurtinib] + CC(=O)Nc1cccc(-n2c(=O)n(C3CC3)c(=O)c3c(Nc4ccc(I)cc4F)n(C)c(=O)c(C)c32)c1 [Trametinib] (partner 0.02 µM)
Procedure, shortened: as §1

Cell Line	relative viability ([1]; first compound 0.005 µM)	relative viability ([1]; first compound 0.01581 µM)	relative viability ([1]; first compound 0.05 µM)	relative viability ([1]; first compound 0.1581 µM)	relative viability ([1]; first compound 0.5 µM)	relative viability ([2]; first compound 0.2 µM)	relative viability ([2]; first compound 0.6325 µM)	relative viability ([2]; first compound 2 µM)	relative viability ([2]; first compound 6.325 µM)	relative viability ([2]; first compound 20 µM)	relative viability (TPCA-1 + OSI-027; first compound 0.04 µM)	relative viability (TPCA-1 + OSI-027; first compound 0.1265 µM)	relative viability (TPCA-1 + OSI-027; first compound 0.4 µM)	relative viability (TPCA-1 + OSI-027; first compound 1.265 µM)	relative viability (TPCA-1 + OSI-027; first compound 4 µM)	relative viability ([3]; first compound 0.005 µM)	relative viability ([3]; first compound 0.01581 µM)	relative viability ([3]; first compound 0.05 µM)	relative viability ([3]; first compound 0.1581 µM)	relative viability ([3]; first compound 0.5 µM)
201T	1.03	0.987	0.992	0.926	0.937	1.24	1.17	1.27	1.13	1.2	0.781	0.751	0.782	0.669	0.484	0.744	0.758	0.76	0.837	0.721
NCI-H1734	0.95	0.849	0.477	0.545	0.342	0.837	0.908	0.914	0.812	0.866	0.822	0.477	0.656	0.745	0.33	0.788	0.788	0.712	0.478	0.267
NCI-H520	0.944	1.14	0.632	0.549	0.256	0.98	1.06	1.15	0.856	1	0.302	0.234	0.19	0.231	0.243	0.715	0.676	0.534	0.42	0.211
NCI-H1355	0.795	0.838	0.546	0.451	0.302	0.958	0.812	0.904	0.853	0.933	0.466	0.365	0.414	0.313	0.234	0.481	0.435	0.359	0.318	0.285
NCI-H1915	1.21	1.09	1.11	0.797	0.565	0.788	0.758	0.818	0.754	0.818	0.695	0.563	0.676	0.509	0.467	0.318	0.254	0.253	0.12	0.0799
BEN	0.949	1.09	0.747	0.778	0.321	0.0742	0.059	0.368	0.0733	0.0554	0.261	0.269	0.303	0.346	0.242	1.23	1.43	0.998	0.709	0.553
NCI-H3122	1.11	1.09	1.01	1.08	0.527	1.02	1.02	1.02	1.01	1.02	1.29	0.837	0.954	0.854	0.517	0.298	0.228	0.228	0.223	0.335
SK-MES-1	1.04	1.06	0.501	0.485	0.317	1.28	1.3	1.17	1	1.14	0.589	0.567	0.558	0.319	0.211	0.535	0.515	0.495	0.415	0.208
